Test results published in patent US8394772B2, “Glycoside derivative and uses thereof” (Novartis AG, priority 2009, dated 2013).

Key:
[1] = target: T1, human sodium glucose cotransporter 2 (Homo sapiens, UniProt P31639); assay: SGLT-2 assay: sodium-dependent 14C-AMG uptake in CHO-hSGLT2 or HEK-hSGLT2 cells; type: cell-based; details: n = 1-4, hSGLT2-transfected CHO-K1 or HEK293 cells, read-out: SGLT2 IC50 nM (n = 1-4)
T1 construct: expressed in transfected cells; host or cells: CHO-K1 (ATCC CCL-61) or HEK293 (ATCC CRL-1573), stably transfected with pZeoSV
T1 sequence (P31639 1-672): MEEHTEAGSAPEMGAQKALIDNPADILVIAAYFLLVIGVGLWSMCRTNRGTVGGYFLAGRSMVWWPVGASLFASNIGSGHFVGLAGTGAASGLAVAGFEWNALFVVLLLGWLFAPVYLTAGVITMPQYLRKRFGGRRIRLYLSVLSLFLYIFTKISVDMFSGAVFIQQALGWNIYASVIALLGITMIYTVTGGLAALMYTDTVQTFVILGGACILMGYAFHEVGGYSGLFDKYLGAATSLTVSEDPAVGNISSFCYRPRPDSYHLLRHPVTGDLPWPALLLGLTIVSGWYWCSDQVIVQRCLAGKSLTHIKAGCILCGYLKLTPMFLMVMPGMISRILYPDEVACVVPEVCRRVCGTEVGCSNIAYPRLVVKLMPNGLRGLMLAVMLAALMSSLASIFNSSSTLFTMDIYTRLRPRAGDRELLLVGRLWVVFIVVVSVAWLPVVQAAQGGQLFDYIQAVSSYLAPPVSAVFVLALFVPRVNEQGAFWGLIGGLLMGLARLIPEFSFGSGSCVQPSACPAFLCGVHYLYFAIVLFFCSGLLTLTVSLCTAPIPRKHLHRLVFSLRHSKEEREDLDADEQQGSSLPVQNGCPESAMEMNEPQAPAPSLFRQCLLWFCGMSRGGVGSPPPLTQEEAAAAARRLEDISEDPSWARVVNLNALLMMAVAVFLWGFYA
Procedure: These cell lines transport 14 C-labeled alpha-methyl-glucopyranoside (14 C-AMG, Amersham) into the interior of the cell in sodium-dependent manner.
(§1) The SGLT-2 assay is carried out as follows: CHO-hSGLT2 cells are cultivated in Ham's F12 Medium (BioWhittaker) with 10% fetal calf serum and 250 μg/mL zeocin (Invitrogen), and HEK293-hSGLT2 cells are cultivated in DMEM medium with 10% fetal calf serum and 250 μg/mL zeocin (Invitrogen). The cells are detached from the culture flasks by washing twice with PBS and subsequently treating with trypsin/EDTA. After the addition of cell culture medium the cells are centrifuged, resuspended in culture medium and counted in a Casy cell counter. Then 40,000 cells per well are seeded into a white, 96-well plate coated with poly-D-lysine and incubated overnight at 37° C., 5% CO2. The cells are washed twice with 250 μl of assay buffer (Hanks Balanced Salt Solution, 137 mM NaCl, 5.4 mM KCl, 2.8 mM CaCl2, 1.2 mM MgSO4 and 10 mM HEPES (pH 7.4), 50 μg/mL of gentamycin). 250 μl of assay buffer and 5 μl of test compound are then added to each well and the plate is incubated for a further 15 minutes in the incubator. 5 μl of 10% DMSO are used as the negative control. The reaction is started by adding 5 μl of 14 C-AMG (0.05 μCi) to each well. After 2 hours' incubation at 37° C., 5% CO2, the cells are washed again with 250 μl of PBS ([…]) and then lysed by the addition of 25 μl of 0.1 N NaOH (5 min. at 37° C.). 200 μl of MicroScint20 (Packard) are added to each well and incubation is continued for a further 20 min at 37° C. After this incubation the radioactivity of the 14 C-AMG absorbed is measured in a Topcount (Packard) using a 14 C scintillation program.

[2] = target: T2, human SGLT1 (Homo sapiens, UniProt P13866); assay: Analogous SGLT1 selectivity test: hSGLT1 expressed in CHO-K1 or HEK293 cells; type: cell-based; details: n = 1-4; 14C-AMG uptake, hSGLT1-transfected CHO-K1 or HEK293 cells
T2 construct: expressed in transfected cells; host or cells: CHO-K1 or HEK293
T2 sequence (P13866 1-664): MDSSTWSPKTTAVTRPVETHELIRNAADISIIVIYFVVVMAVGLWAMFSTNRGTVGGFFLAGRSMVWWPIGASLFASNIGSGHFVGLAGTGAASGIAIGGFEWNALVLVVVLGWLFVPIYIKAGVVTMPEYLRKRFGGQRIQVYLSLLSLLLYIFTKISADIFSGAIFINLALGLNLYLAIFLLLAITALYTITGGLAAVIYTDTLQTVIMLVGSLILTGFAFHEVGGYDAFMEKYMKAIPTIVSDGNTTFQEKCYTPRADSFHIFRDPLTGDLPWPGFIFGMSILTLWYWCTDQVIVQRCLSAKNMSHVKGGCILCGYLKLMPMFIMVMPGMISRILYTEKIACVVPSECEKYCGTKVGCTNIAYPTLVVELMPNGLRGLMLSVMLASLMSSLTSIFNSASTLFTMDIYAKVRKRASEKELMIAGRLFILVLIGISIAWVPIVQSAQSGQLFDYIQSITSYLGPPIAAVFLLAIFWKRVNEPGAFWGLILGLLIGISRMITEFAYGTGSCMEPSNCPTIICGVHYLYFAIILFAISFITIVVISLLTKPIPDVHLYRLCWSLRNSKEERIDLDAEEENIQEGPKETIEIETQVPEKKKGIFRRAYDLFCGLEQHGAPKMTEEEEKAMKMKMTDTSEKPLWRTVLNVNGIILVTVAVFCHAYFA
Procedure: as §1
To determine the selectivity with respect to human SGLT1 an analogous test is set up in which the cDNA for hSGLTI (Genbank Ace. No. NM000343) instead of hSGLT2 cDNA is expressed in CHO-K1 or HEK293 cells.

IC50 [1] | IC50 [2] | SMILES
1 nM | 300 nM | CCOc1ccc(Cc2cc([C@@H]3OC4(CC4)[C@@H](O)[C@H](O)[C@H]3O)ccc2Cl)cc1 [Example 2, (5S,6R,7R,8S)-5-[4-Chloro-3-(4-ethoxy-benzyl)-phenyl]-4-oxa-spiro[2.5]octane-6,7,8-triol]
0.9 nM | 153 nM | CCOc1ccc(Cc2cc([C@@H]3OC4(CC4)[C@@H](O)[C@H](O)[C@H]3O)ccc2C)cc1 [Example 3, (5S,6R,7R,8S)-5-[3-(4-Ethoxy-benzyl)-4-methyl-phenyl]-4-oxa-spiro[2.5]octane-6,7,8-triol]
2.6 nM | 460 nM | Oc1ccc(Cc2cc([C@@H]3OC4(CC4)[C@@H](O)[C@H](O)[C@H]3O)ccc2Cl)cc1 [Example 6, (5S,6R,7R,8S)-5-[4-Chloro-3-(4-hydroxy-benzyl)-phenyl]-4-oxa-spiro[2.5]octane-6,7,8-triol]
23 nM | > 30000 nM | CCOc1ccc(Cc2cc([C@@H]3OC(CO)(CO)[C@@H](O)[C@H](O)[C@H]3O)ccc2Cl)cc1 [Example 10, (3S,4R,5R,6S)-6-[4-Chloro-3-(4-ethoxy-benzyl)-phenyl]-2,2-bis-hydroxymethyl-tetrahydro-pyran-3,4,5-triol]
